# Data from patent publication EP3995502A1, “4-HYDROXYPHENYL PHOSPHONIUM SALTS WITH ANTI-PARASITIC PROPERTIES” (priority 2019, dated 2021).
# Like-named read-outs stand apart in the source and are kept apart here.
# Experiments:
# [1] = system: L. donovani intracellular amastigotes; assay: In vitro leishmanicidal activity, MTT colorimetric method, intracellular amastigotes; conditions: read-out: EC50 (µM) L. donovani intracellular amastigotes
# [2] = system: L. infantum intracellular amastigotes; assay: Leishmanicidal activity on intracellular amastigotes of clinical isolates of L. infantum; format: cell-based
# Description: (§1) The data represent the mean ± standard deviation of 3 independent experiments. ^b SI = selectivity index (EC50 THP-1 / EC50 parasite (amastigote form)). ^c not assayed. ^d Sensitivity data obtained in L. infantum LEM3049. ^eAmphotericin B. ^fMiltefosine.
# (§2) ^aClinical isolates of L. infantum used: LEM 3049 as a reference line; LEM 3323, resistant to Sb^III; LEM 5159, resistant to miltefosine (MIL) and LEM 2126, resistant to MIL and paromomycin. Amphotericin B (AmB) was used as a reference drug. The data represent the mean ± standard deviation of 3 independent experiments.
# [3] = system: L. infantum promastigotes; assay: Leishmanicidal activity on promastigotes of clinical isolates of L. infantum; format: cell-based
# Description: as §1, §2
# [4] = system: THP-1 cells
# [5] = system: L. donovani promastigotes; assay: In vitro leishmanicidal activity, MTT colorimetric method, promastigotes; conditions: read-out: EC50 (µM) L. donovani promastigotes
# [6] = system: THP-1 cells; assay: cells; conditions: Homo sapiens, THP-1, read-out: EC50 (µM) THP-1 cells
# [7] = system: T. brucei (strain s427 of T. b. brucei); assay: In vitro trypanocidal activity, sensitive strain s427; format: cell-based; conditions: Trypanosoma brucei, read-out: EC50 (µM) T. brucei
# [8] = system: T. brucei B48; assay: microbe, parasite or virus in culture; format: cell-based, T. b. brucei; parameters: RF: unit not given here; conditions: for EC50: Trypanosoma brucei, read-out: EC50 (µM) T. brucei B48
# [9] = in vitro; conditions: human, liver microsomes
# [10] = human, liver microsomes
# [11] = in vitro; conditions: human, liver S9 fraction
# [12] = strain HU3, mean ± standard deviation of 3 independent experiments
# [13] = selectivity index (EC50 THP-1 / EC50 parasite (amastigote form)), L. donovani
# [14] = strain s427 of T. b. brucei, mean ± standard deviation of 3 independent experiments
smiles,measurement,setting,value
"C[C@@H]1[C@H](O)[C@@H](C)/C=C/C=C/C=C/C=C/C=C/C=C/C=C/[C@H](O[C@@H]2O[C@H](C)[C@@H](O)[C@H](N)[C@@H]2O)C[C@@H]2O[C@](O)(C[C@@H](O)C[C@@H](O)[C@H](O)CC[C@@H](O)C[C@@H](O)CC(=O)O[C@H]1C)C[C@H](O)[C@H]2C(=O)O [AmB, Amphotericin B]",EC50,[1]; [12],0.24 µM
same,EC50,"[2]; L. infantum LEM3049, reference line, read-out: EC50 (µM) Intracellular amastigotes",0.17 ± 0.02 µM
same,EC50,"[2]; L. infantum LEM3323, resistant to SbIII, read-out: EC50 (µM) Intracellular amastigotes",0.18 ± 0.02 µM
same,EC50,"[2]; L. infantum LEM5159, resistant to miltefosine, read-out: EC50 (µM) Intracellular amastigotes",0.16 ± 0.03 µM
same,EC50,"[2]; L. infantum LLM2126, resistant to MIL and paromomycin, read-out: EC50 (µM) Intracellular amastigotes",0.16 ± 0.01 µM
same,EC50,"[3]; L. infantum LEM3049, reference line, read-out: EC50 (µM) Promastigotes",0.06 ± 0.02 µM
same,EC50,"[3]; L. infantum LEM3323, resistant to SbIII, read-out: EC50 (µM) Promastigotes",0.07 ± 0.03 µM
same,EC50,"[3]; L. infantum LEM5159, resistant to miltefosine, read-out: EC50 (µM) Promastigotes",0.05 ± 0.01 µM
same,EC50,"[3]; L. infantum LLM2126, resistant to MIL and paromomycin, read-out: EC50 (µM) Promastigotes",0.1 ± 0.02 µM
same,EC50,"[4]; read-out: EC50 (µM) THP-1 cells, human THP-1 cells, cytotoxicity",27.9 µM
same,SI,[4]; [13],116.0
same,EC50,[5]; [12],0.13 ± 0.02 µM
"Cc1cc(O)ccc1C(=O)CCCCCCCCCCCCCCC[P+](c1ccccc1)(c1ccccc1)c1ccccn1.[Br-] [compound 3, (16-(4-hydroxy-2-methylphenyl)-16-oxohexadecyl)diphenyl(pyridin-2-yl)phosphonium bromide]",EC50,[1]; Leishmania donovani,0.1 ± 0.02 µM
same,EC50,[6],2.11 ± 0.12 µM
same,SI,[4],21.1
same,EC50,[5]; Leishmania donovani,0.28 ± 0.05 µM
same,EC50,[7]; [14],0.107 µM
same,RF,[8],0.90
same,EC50,[8],0.096 µM
"Cc1cc(O)ccc1C(=O)CCCCCCCCCCCCCCC[P+](c1ccccc1)(c1ccccc1)c1ccccc1.[Br-] [compound 2, (16-(4-hydroxy-2-methylphenyl)-16-oxohexadecyl)triphenylphosphonium bromide]",EC50,[1]; Leishmania donovani,0.1 ± 0.01 µM
same,EC50,[6],2.45 ± 0.41 µM
same,SI,[4],24.5
same,EC50,[5]; Leishmania donovani,0.09 ± 0.01 µM
same,EC50,[7]; [14],0.043 µM
same,RF,[8],1.01
same,EC50,[8],0.044 µM
"O=C(CCCCCCCCCCCCCCC[P+](c1cccc2ccccc12)(c1cccc2ccccc12)c1cccc2ccccc12)c1ccc(O)cc1O.[Br-] [compound 4, (16-(2,4-dihydroxyphenyl)-16-oxohexadecyl)tri(naphthalen-1-yl)phosphonium bromide]",EC50,"[2]; Leishmania infantum, footnote d: sensitivity data obtained in L. infantum LEM3049, read-out: EC50 (µM) L. donovani intracellular amastigotes",1.25 ± 0.22 µM
same,EC50,[6],12.8 ± 2.3 µM
same,EC50,"[3]; Leishmania infantum, footnote d: sensitivity data obtained in L. infantum LEM3049, read-out: EC50 (µM) L. donovani promastigotes",3.54 ± 0.36 µM
same,SI,"[4]; selectivity index (EC50 THP-1 / EC50 parasite (amastigote form)), parasite data from L. infantum LEM3049",10.3
"CCCCCCCCCCCCCCCCOP(=O)([O-])OCC[N+](C)(C)C [MIL, Miltefosine]",EC50,[1]; Leishmania donovani,0.91 ± 0.05 µM
same,EC50,[6],26.2 ± 2.58 µM
same,SI,[4]; [13],28.8
same,EC50,[5]; Leishmania donovani,6.51 ± 0.35 µM
"N=C(N)c1ccc(OCCCCCOc2ccc(C(=N)N)cc2)cc1 [Pent, Pentamidine]",EC50,[7]; [14],0.0033 ± 0.0006 µM
same,EC50,[8],0.55 ± 0.03 µM
O=C(O)Cc1ccccc1Nc1c(Cl)cccc1Cl [diclofenac],half-life,[9],< 30 min
same,intrinsic clearance,[10],high
same,half-life,[11],< 30 min
"N=C(N)c1ccc(/N=N/Nc2ccc(C(=N)N)cc2)cc1 [Dimin, Diminazene]",EC50,[7],0.101 µM
same,EC50,[8],1.33 ± 0.14 µM
